Experimental data from patent US20140271470A1, “TARGETED THERANOSTICS FOR METASTATIC PROSTATE CANCER” (priority 2013, published 2014).

What was measured:
[1] = test system: human C4-2 prostate cancer xenografts; experiment: Tumor volume growth of C4-2 xenografts treated with SIPP preparations; format: in vivo, nude mice; conditions: tumor volume growth curves
Excerpt: Tumor volume growth curves for nude mice bearing human C4-2 prostate cancer xenografts treated with various preparations of SIPPs. (A) Black squares, no treatment controls.

[2] = molecular target: T1, neurotensin receptor 1 (NTR1) (Homo sapiens, UniProt P30989); conditions: combined with radiation; cited from earlier work
T1 construct: NTR1, which is highly expressed in prostate cancer cells but not in normal prostate epithelial cells; endogenous in cells; PC-3M for the xenograft

[3] = test system: PC-3M orthotopic human tumor xenografts; conditions: combined with radiation; cited from earlier work
[4] = test system: NF-κB; conditions: cited from earlier work

T1 sequence (P30989 whole entry): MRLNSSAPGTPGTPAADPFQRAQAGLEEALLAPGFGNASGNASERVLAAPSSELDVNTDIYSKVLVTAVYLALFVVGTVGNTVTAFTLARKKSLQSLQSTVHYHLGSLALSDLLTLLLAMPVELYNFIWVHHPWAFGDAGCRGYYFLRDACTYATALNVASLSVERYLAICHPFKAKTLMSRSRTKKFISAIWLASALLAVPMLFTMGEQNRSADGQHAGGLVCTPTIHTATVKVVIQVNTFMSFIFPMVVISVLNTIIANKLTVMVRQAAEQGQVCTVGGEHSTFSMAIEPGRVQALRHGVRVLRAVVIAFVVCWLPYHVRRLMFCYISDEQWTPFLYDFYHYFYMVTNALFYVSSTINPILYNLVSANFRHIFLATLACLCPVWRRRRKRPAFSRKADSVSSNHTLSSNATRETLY

## CC(=O)O[C@H]1C(=O)[C@@]2(C)[C@H]([C@H](OC(=O)c3ccccc3)[C@]3(O)C[C@H](OC(=O)[C@H](O)[C@@H](NC(=O)c4ccccc4)c4ccccc4)C(C)=C1C3(C)C)[C@]1(OC(C)=O)CO[C@@H]1C[C@@H]2O [Paclitaxel, paclitaxel]
[1]
  effect on tumor growth: effective

## COc1cccc(OC)c1-c1cc(C(=O)NC2(C(=O)O)C3CC4CC(C3)CC2C4)nn1-c1ccnc2cc(Cl)ccc12 (centres unmarked) [SR48692]
[2]
  apoptotic cell death: increasing apoptotic cell death
  clonogenic survival: decreasing clonogenic survival
  radiosensitization of prostate cancer cells: sensitized prostate cancer cells in a dose- and time-dependent manner
[3]
  radiosensitization of xenografts: efficiently radiosensitizedn
  tumor burden: significantly reduced tumor burden

## C[C@H]1O[C@@H](O[C@H]2[C@@H](O)C[C@H](O[C@H]3[C@@H](O)C[C@H](O[C@H]4CC[C@@]5(C)[C@H](CC[C@@H]6[C@@H]5CC[C@]5(C)[C@@H](C7=CC(=O)OC7)CC[C@]65O)C4)O[C@@H]3C)O[C@@H]2C)C[C@H](O)[C@@H]1O [digitoxin]
[4]
  NF-κB inhibition: potent inhibitors of NF-κB

## C[C@H]1O[C@@H](O[C@H]2[C@@H](O)C[C@H](O[C@H]3[C@@H](O)C[C@H](O[C@H]4CC[C@@]5(C)[C@H](CC[C@@H]6[C@@H]5C[C@@H](O)[C@]5(C)[C@@H](C7=CC(=O)OC7)CC[C@]65O)C4)O[C@@H]3C)O[C@@H]2C)C[C@H](O)[C@@H]1O [digoxin]
[4]
  NF-κB inhibition: potent inhibitors of NF-κB
